In assay [1] the target is Focal Adhesion Kinase (FAK) (Homo sapiens, UniProt Q05397). Put plainly: FAK assay system (Focal Adhesion Kinase inhibition). Format: biochemical.
A further assay addresses IGF-IR (Homo sapiens, UniProt P08069). Put plainly: Cellular Capture ELISA of IGF-I induced autophosphorylation of the IGF-IR. It counts as cell-based. To be noted: read-out: IGF-1R IC50. The method, then:
In this assay the activity of the compounds of the invention against Insulin-like growth factor I (IGF-I) induced autophosphorylation of the IGF-IR is determined.

The next assay has as its target FAK (Mus musculus, UniProt P34152). Put plainly: Phos IC50 (phosphorylation). It counts as cell-based.
The subject of assay [2] is Mouse mammary carcinoma 4T1 cells. As to the kind of experiment: Anchorage-independent tumor cell growth assay. It counts as cell-based. The method, then:
Cells are cultured for 2 h and inhibitors are added at various concentrations in a final concentration of 0.1% DMSO. After 48 h, cell growth is assayed with the cell counting kit-8 (Wako Pure Chemical), which uses a water soluble tetrazolium salt WST8. Twenty μL of the reagent is added into each well and cells are further cultured for 2 h. The optical density is measured at 450 nm.

Structures are written as SMILES. Read-outs that look alike come from different tables or passages of the source.

Chain of Focal Adhesion Kinase (FAK) (Q05397 384-706): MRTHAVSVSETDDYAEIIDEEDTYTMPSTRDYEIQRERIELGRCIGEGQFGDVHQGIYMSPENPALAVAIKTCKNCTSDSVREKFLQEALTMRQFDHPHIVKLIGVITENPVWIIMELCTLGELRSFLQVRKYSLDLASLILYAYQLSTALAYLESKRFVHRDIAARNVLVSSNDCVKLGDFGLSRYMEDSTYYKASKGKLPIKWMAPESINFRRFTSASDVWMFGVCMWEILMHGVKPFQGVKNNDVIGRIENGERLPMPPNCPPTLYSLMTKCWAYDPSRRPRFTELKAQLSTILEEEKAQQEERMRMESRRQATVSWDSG
Chain of FAK (P34152 2-1052): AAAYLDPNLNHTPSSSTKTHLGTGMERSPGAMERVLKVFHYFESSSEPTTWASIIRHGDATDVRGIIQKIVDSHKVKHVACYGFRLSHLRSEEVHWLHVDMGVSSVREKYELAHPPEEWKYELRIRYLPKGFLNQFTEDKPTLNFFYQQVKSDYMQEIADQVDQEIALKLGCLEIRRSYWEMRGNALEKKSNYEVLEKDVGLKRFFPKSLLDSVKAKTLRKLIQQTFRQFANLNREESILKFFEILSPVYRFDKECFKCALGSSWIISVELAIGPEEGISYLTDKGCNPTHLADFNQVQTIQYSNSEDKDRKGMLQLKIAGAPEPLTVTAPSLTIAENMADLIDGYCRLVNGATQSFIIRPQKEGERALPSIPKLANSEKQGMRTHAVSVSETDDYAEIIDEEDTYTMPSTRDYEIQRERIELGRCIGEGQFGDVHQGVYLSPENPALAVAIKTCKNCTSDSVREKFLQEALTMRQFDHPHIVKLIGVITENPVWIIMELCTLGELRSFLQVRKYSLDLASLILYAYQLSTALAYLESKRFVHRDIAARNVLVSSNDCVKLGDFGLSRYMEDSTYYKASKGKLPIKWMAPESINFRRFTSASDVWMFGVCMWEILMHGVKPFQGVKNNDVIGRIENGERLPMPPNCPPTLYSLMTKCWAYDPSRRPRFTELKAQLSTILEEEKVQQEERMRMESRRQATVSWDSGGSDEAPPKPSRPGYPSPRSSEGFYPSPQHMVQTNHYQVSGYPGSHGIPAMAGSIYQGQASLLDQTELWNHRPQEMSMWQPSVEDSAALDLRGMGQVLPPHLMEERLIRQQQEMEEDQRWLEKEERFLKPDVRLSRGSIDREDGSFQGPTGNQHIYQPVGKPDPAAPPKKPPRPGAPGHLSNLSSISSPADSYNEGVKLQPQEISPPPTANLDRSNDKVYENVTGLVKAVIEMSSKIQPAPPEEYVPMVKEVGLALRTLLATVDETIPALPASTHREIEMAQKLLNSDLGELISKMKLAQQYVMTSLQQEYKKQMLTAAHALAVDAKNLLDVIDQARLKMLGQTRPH
Chain of IGF-IR (P08069 31-1367): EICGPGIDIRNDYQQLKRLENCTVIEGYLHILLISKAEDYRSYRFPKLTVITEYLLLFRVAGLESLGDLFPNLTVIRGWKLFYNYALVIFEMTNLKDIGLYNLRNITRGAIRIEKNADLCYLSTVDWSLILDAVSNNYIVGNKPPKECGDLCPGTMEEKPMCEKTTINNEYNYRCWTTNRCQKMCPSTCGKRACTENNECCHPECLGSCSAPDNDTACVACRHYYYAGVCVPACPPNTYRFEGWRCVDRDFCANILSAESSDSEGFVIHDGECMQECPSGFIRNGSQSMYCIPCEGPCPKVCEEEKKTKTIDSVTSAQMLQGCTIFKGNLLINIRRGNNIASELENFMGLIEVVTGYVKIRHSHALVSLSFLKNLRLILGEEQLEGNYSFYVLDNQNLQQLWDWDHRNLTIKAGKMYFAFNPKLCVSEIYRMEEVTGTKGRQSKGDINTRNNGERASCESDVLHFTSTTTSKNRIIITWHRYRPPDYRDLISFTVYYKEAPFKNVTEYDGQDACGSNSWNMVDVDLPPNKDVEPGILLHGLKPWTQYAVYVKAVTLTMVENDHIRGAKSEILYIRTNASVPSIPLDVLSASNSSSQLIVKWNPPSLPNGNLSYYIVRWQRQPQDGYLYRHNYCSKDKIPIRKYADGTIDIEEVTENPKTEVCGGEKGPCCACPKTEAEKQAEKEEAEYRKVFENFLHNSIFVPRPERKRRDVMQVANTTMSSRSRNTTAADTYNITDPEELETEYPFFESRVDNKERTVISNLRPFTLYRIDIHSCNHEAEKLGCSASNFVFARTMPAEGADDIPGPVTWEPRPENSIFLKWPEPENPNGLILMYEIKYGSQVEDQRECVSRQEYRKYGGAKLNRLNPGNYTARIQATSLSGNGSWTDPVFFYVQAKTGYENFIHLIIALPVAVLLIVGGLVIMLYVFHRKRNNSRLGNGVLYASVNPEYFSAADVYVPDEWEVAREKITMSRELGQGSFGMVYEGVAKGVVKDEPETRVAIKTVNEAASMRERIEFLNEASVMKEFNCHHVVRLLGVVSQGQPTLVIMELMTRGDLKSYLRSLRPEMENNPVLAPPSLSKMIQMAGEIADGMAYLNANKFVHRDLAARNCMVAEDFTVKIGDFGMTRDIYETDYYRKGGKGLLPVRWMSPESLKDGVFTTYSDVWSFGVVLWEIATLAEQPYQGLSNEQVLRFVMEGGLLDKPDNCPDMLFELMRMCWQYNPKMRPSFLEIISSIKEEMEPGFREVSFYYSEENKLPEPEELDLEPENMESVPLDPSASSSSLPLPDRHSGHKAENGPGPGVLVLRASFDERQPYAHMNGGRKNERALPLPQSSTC

`CNS(=O)(=O)c1ccccc1Nc1nc(Nc2ccccc2OC(F)(F)F)ncc1Cl` [Example 20-3]: the IC50 in assay [1] (read-out: FAK IC50) stood at 42 nM; at IGF-IR it was 2780 nM; against FAK it was 400 nM; in assay [2] (Mus musculus, 4T1) it was 2500 nM.

For the molecule `CNS(=O)(=O)c1ccccc1Nc1nc(Nc2ccc(C)cc2OC)ncc1Br` [Example 3-5], the IC50 in assay [1] (read-out: FAK IC50) is 21 nM; on IGF-IR, more than 10000 nM; against FAK, 170 nM; in assay [2] (Mus musculus, 4T1), 2000 nM.

For `CNS(=O)(=O)c1cc(F)ccc1Nc1nc(Nc2ccc(N3CCOCC3)cc2OC)ncc1Br` [Example 52, 2-[5-Bromo-2-(2-methoxy-4-morpholin-4-yl-phenylamino)-pyrimidin-4-ylamino]-5-fluoro-N-methyl-benzenesulfonamide], the IC50 in assay [1] (read-out: FAK IC50) is 13 nM; at IGF-IR it was less than 80 nM; against FAK it was 200 nM; in assay [2] (Mus musculus, 4T1), 410 nM.

Regarding `COc1cc(NCC(C)(C)CN(C)C)ccc1Nc1ncc(Cl)c(Nc2ccccc2S(=O)(=O)NC(C)C)n1` [Example 19-10], the IC50 in assay [1] (read-out: FAK IC50) came to 1.3 nM; at IGF-IR, 1020 nM; against FAK it was 60 nM; in assay [2] (Mus musculus, 4T1) it was 560 nM.

Regarding `CCC(CC)S(=O)(=O)c1ccccc1Nc1nc(Nc2ccc(N3CCOCC3)cc2OC)ncc1Cl` [Example 29-1], the IC50 stood at 13 nM in assay [1] (read-out: FAK IC50); 90 nM at IGF-IR; 700 nM against FAK; 2200 nM in assay [2] (Mus musculus, 4T1).

As for `CCNC1CCN(c2ccc(Nc3ncc(Cl)c(Nc4ccccc4S(=O)(=O)NC(C)C)n3)c(OC)c2)C1` (stereo not shown) [Example 19-2], the IC50 in assay [1] (FAK IC50) was found to be 1.6 nM; on IGF-IR it was 910 nM; in assay [2] (Mus musculus, 4T1), 380 nM.

As for `CNS(=O)(=O)c1ccccc1Nc1nc(Nc2cc(OCCCN3CCOCC3)ccc2OC)ncc1Br` [Example 3-73], the IC50 worked out at 11 nM in assay [1] (read-out: FAK IC50); 1630 nM on IGF-IR; 30 nM against FAK; 290 nM in assay [2] (Mus musculus, 4T1).

For the molecule `CNC(=O)c1ccccc1Nc1nc(Nc2ccc(OC3CCN(C)CC3)cc2OC)ncc1Cl` [Example 7-5], the IC50 in assay [1] (read-out: FAK IC50) is 6.2 nM; on IGF-IR, 250 nM; against FAK it was 300 nM; in assay [2] (Mus musculus, 4T1), 200 nM.

For the molecule `CNS(=O)(=O)c1ccccc1Nc1nc(Nc2cc(-c3cccnc3)ccc2OC)ncc1Br` [Example 3-66], the IC50 in assay [1] (read-out: FAK IC50) amounted to 1 nM; on IGF-IR it was 250 nM; on FAK it was 80 nM; in assay [2] (Mus musculus, 4T1) it was 70 nM.

Regarding `CCCS(=O)(=O)c1ccccc1Nc1nc(Nc2ccc(N3CCOCC3)cc2OC)ncc1Cl` [Example 26-1], the IC50 in assay [1] (read-out: FAK IC50) came to 4.4 nM; at IGF-IR it was 290 nM; against FAK, 50 nM; in assay [2] (Mus musculus, 4T1) it was 350 nM.

Consider `CNS(=O)(=O)c1ccccc1Nc1nc(Nc2ccc(-n3ccnc3)cc2OC)ncc1Br` [Example 3-48], for which the IC50 in assay [1] (read-out: FAK IC50) came out at 7 nM; on IGF-IR it was 210 nM; on FAK, 70 nM; in assay [2] (Mus musculus, 4T1), 300 nM.

For the molecule `CCCS(=O)(=O)c1ccccc1Nc1nc(Nc2ccc(N3CCC(C(N)=O)CC3)cc2OC)ncc1Cl` [Example 26-5], the IC50 was determined as 2.1 nM in assay [1] (FAK IC50); 1500 nM at IGF-IR; 230 nM in assay [2] (Mus musculus, 4T1).

With `COc1cc(N2CCOCC2)ccc1Nc1ncc(Cl)c(Nc2ccccc2S(=O)(=O)NCC(C)C)n1` [Example 22-3], the IC50 in assay [1] (read-out: FAK IC50) is 6.6 nM; at IGF-IR, 260 nM; against FAK, 90 nM; in assay [2] (Mus musculus, 4T1), 150 nM.

`COc1cc(N2CCN(C3CCN(C)CC3)CC2)ccc1Nc1ncc(Cl)c(Nc2ccccc2S(=O)(=O)C(C)C)n1` [Example 28-24]: the IC50 in assay [1] (read-out: FAK IC50) was found to be 2.9 nM; on IGF-IR, 2570 nM; at FAK it was 200 nM; in assay [2] (Mus musculus, 4T1), 90 nM.

As to `CNS(=O)(=O)c1ccccc1Nc1nc(Nc2ccc(-n3ccnc3C)cc2OC)ncc1Br` [Example 3-83], the IC50 in assay [1] (FAK IC50) worked out at 20 nM; on IGF-IR it was 680 nM; in assay [2] (Mus musculus, 4T1) it was 320 nM.

With `COc1cc(OC2CCN(C)C2)ccc1Nc1ncc(Cl)c(Nc2ccccc2S(=O)(=O)NC(C)C)n1` (stereo not shown) [Example 19-20], the IC50 in assay [1] (read-out: FAK IC50) turned out to be 1.6 nM; at IGF-IR, 230 nM; on FAK it was 30 nM; in assay [2] (Mus musculus, 4T1) it was 70 nM.

Turning to `CCN1CCC(Oc2ccc(Nc3ncc(Cl)c(Nc4ccccc4S(=O)(=O)NC)n3)c(OC)c2)C1` (stereo not shown) [Example 20-30], the IC50 in assay [1] (read-out: FAK IC50) stood at 7.6 nM; on IGF-IR, 670 nM; against FAK, 300 nM; in assay [2] (Mus musculus, 4T1), 80 nM.

Take `CNC(=O)c1ccccc1Nc1nc(Nc2ccc(N3CCC(N(C)C)C3)cc2OC)ncc1Cl` (stereo not shown) [Example 7-11]: the IC50 in assay [1] (read-out: FAK IC50) turned out to be 2.5 nM; on IGF-IR, 770 nM; on FAK, 600 nM; in assay [2] (Mus musculus, 4T1), 1200 nM.

Regarding `CNC(=O)c1ccccc1Nc1nc(Nc2cc(F)ccc2OC)ncc1Br` [Example 8-3], the IC50 was 13 nM in assay [1] (read-out: FAK IC50); more than 10000 nM at IGF-IR; 220 nM against FAK; 1000 nM in assay [2] (Mus musculus, 4T1).

On to `CNC(=O)c1ccccc1Nc1nc(Nc2ccc(N3CCC(N4CCCCC4)CC3)cc2OC)ncc1Cl` [Example 7-1], for which the IC50 stood at 4.7 nM in assay [1] (read-out: FAK IC50); 190 nM on IGF-IR; 600 nM at FAK; 540 nM in assay [2] (Mus musculus, 4T1).

Turning to `CNS(=O)(=O)c1ccccc1Nc1nc(Nc2cc(-c3ccncc3)ccc2OC)ncc1Br` [Example 3-65], the IC50 in assay [1] (read-out: FAK IC50) stood at 8 nM; at IGF-IR it was 150 nM; against FAK, 80 nM; in assay [2] (Mus musculus, 4T1), 100 nM.

As for `CNS(=O)(=O)c1ccccc1Nc1nc(Nc2cccc3[nH]ccc23)ncc1Br` [Example 3-11], the half-inhibitory concentration (IC50) stood at 9 nM in assay [1] (read-out: FAK IC50); 200 nM on IGF-IR; 40 nM at FAK; 300 nM in assay [2] (Mus musculus, 4T1).

Take `CNS(=O)(=O)c1ccccc1Nc1nc(Nc2ccc(F)cc2OC)ncc1Br` [Example 3-80]: the IC50 in assay [1] (read-out: FAK IC50) turned out to be 12 nM; on IGF-IR, 5000 nM; at FAK, 220 nM; in assay [2] (Mus musculus, 4T1), 450 nM.

For `COc1cc(N2CCN(CCO)CC2)ccc1Nc1ncc(Cl)c(Nc2ccccc2S(=O)(=O)C(C)C)n1` [Example 28-2], the IC50 in assay [1] (read-out: FAK IC50) was found to be 1.9 nM; on IGF-IR, 3710 nM; against FAK it was 80 nM; in assay [2] (Mus musculus, 4T1), 440 nM.

As to `COc1cc(N2CCOCC2)ccc1Nc1ncc(Br)c(Nc2ccccc2S(=O)(=O)N(C)C)n1` [Example 51, 2-[5-bromo-2-(2-methoxy-4-morpholin-4-yl-phenylamino)-pyrimidin-7-ylamino]-N,N-dimethyl-benznensulfonamide], the IC50 amounted to 8.1 nM in assay [1] (read-out: FAK IC50); 200 nM on IGF-IR; 13 nM against FAK; 190 nM in assay [2] (Mus musculus, 4T1).

As for `CNS(=O)(=O)c1ccccc1Nc1nc(Nc2cc(-c3ccc(OC)cc3)ccc2C)ncc1Br` [Example 3-25], the IC50 in assay [1] (read-out: FAK IC50) was determined as 22 nM; on IGF-IR, 810 nM; at FAK it was 300 nM; in assay [2] (Mus musculus, 4T1) it was 300 nM.

For `CNS(=O)(=O)c1ccccc1Nc1nc(Nc2cc(-c3ccncc3)ccc2C)ncc1Br` [Example 3-54], the IC50 in assay [1] (read-out: FAK IC50) was 0.9 nM; on IGF-IR it was less than 80 nM; at FAK, 10 nM.

`CNS(=O)(=O)c1ccccc1Nc1nc(Nc2cc(N3CCC(N(C)C)C3)ccc2OC)ncc1Cl` (stereo not shown) [Example 20-20]: the IC50 in assay [1] (read-out: FAK IC50) stood at 3.12 nM; on IGF-IR, 100 nM.

Turning to `COc1cc(N2CCC(N(C)C(C)=O)C2)ccc1Nc1ncc(Cl)c(Nc2ccccc2S(=O)(=O)NC(C)C)n1` (stereo not shown) [Example 19-14], the IC50 turned out to be 2.6 nM in assay [1] (FAK IC50); 440 nM on IGF-IR; 1130 nM in assay [2] (Mus musculus, 4T1).

`CNS(=O)(=O)c1ccccc1Nc1nc(Nc2cccc3cn[nH]c23)ncc1Br` [Example 3-13]: the IC50 in assay [1] (FAK IC50) came to 58 nM; at IGF-IR, 740 nM; in assay [2] (Mus musculus, 4T1), 600 nM.

As to `COc1cc(N2CCOCC2)ccc1Nc1ncc(Cl)c(Nc2ccccc2S(C)(=O)=O)n1` [Example 31-2], the IC50 in assay [1] (FAK IC50) was 31 nM; at IGF-IR, 420 nM; in assay [2] (Mus musculus, 4T1) it was 290 nM.

Regarding `COc1cc(OCC2CCCN(C)C2)ccc1Nc1ncc(Cl)c(Nc2ccccc2S(=O)(=O)NC(C)C)n1` (stereo not shown) [Example 19-3], the half-inhibitory concentration (IC50) in assay [1] (FAK IC50) is less than 1 nM; on IGF-IR, 640 nM; in assay [2] (Mus musculus, 4T1), 90 nM.

In the case of `COc1cc(N2CCN(C(C)=O)CC2)ccc1Nc1ncc(Cl)c(Nc2ccccc2S(=O)(=O)C(C)C)n1` [Example 28-11], the results for the IC50 (in assay [1] (read-out: FAK IC50); at FAK; in assay [2]) were 4.2 nM, 500 nM and 630 nM, respectively.

`COc1cc(CN2CCN(C)CC2)ccc1Nc1ncc(Cl)c(Nc2ccccc2S(=O)(=O)C2CC2)n1` [Example 30-5]: the IC50 in assay [1] (read-out: FAK IC50) amounted to 8.5 nM; on FAK it was 2000 nM; in assay [2] (Mus musculus, 4T1) it was 290 nM.

Take `CCCS(=O)(=O)c1ccccc1Nc1nc(Nc2ccc(NCCN3CCOCC3)cc2OC)ncc1Cl` [Example 26-16]: the IC50 was determined as 9 nM in assay [1] (read-out: FAK IC50); 320 nM against FAK; 2000 nM in assay [2] (Mus musculus, 4T1).

As to `CCC(CC)NS(=O)(=O)c1ccccc1Nc1nc(Nc2ccc(OCC3CCCN(C)C3)cc2OC)ncc1Cl` (stereo not shown) [Example 23-5], the IC50 in assay [1] (read-out: FAK IC50) was 1.9 nM; against FAK it was more than 10000 nM; in assay [2] (Mus musculus, 4T1), 590 nM.

In the case of `CCCS(=O)(=O)c1ccccc1Nc1nc(Nc2ccc(N3CCC(NC)C3)cc2OC)ncc1Cl` (stereo not shown) [Example 26-25], the IC50 in assay [1] (read-out: FAK IC50) was less than 1 nM; against FAK, 600 nM; in assay [2], 730 nM.

A word on the IC50: it is the point on the concentration scale where inhibition reaches its midpoint.

Values taken from patent US7893074B2, “2, 4-pyrimidinediamines useful in the treatment of neoplastic diseases, inflammatory and immune system disorders” (Novartis AG, priority 2003, dated 2011).
